The source made the active and inactive calls. No cut-off for these calls is given here.
What was measured:
[1] = biological target: T1, Kappa-type opioid receptor (Homo sapiens, UniProt P41145); experiment: Inverse agonist activity at human KOR expressed in human HTLA cells assessed as beta arrestin-2 recruitment at 10 uM by ONE-Glo luciferase assay relative to 1-(5-(2-Chlorophenyl)-7,8-dimethoxy-3-(3-methoxybenzyl)-3H-pyrazolo(3,4-c)isoquinolin-1-yl)-N-(3-methoxybenzyl)-methanamine; format: functional, cell-based
[2] = biological target: T1, Kappa-type opioid receptor; experiment: Inverse agonist activity at human KOR expressed in human HTLA cells assessed as beta arrestin-2 recruitment by ONE-Glo luciferase assay; format: functional, cell-based
[3] = biological target: Mu-type opioid receptor (Homo sapiens) (UniProt P35372); experiment: Inverse agonist activity at MOR (unknown origin) expressed in HEK293T cells assessed as beta arrestin-2 recruitment upto 10 uM incubated for 20 mins by NanoBiT assay; format: functional, cell-based
[4] = biological target: T2, Delta-type opioid receptor (Homo sapiens, UniProt P41143); experiment: Inverse agonist activity at human DOR expressed in human HTLA cells assessed as beta arrestin-2 recruitment by ONE-Glo luciferase assay; format: functional, cell-based
[5] = species on record: Homo sapiens; experiment: Selectivity ratio of EC50 for human DOR expressed in human HTLA cells assessed as beta arrestin-2 recruitment to EC50 for human KOR expressed in human HTLA cells assessed as beta arrestin-2 recruitment; format: cell-based
[6] = biological target: T1, Kappa-type opioid receptor; experiment: Inverse agonist activity at human KOR expressed in human HTLA cells assessed as beta arrestin-2 recruitment upto 10 uM by ONE-Glo luciferase assay; format: functional, cell-based
[7] = Permeability of the compound across blood brain barrier at pH 7.4 at 50 uM incubated for 4 hrs by PAMPA assay; format: ADME; settings: read-out: permeability
[8] = biological target: T1, Kappa-type opioid receptor; experiment: Displacement of [3H]diprenorphine from human KOR expressed in HEK293 cells incubated for 60 mins by liquid scintillation method; format: cell-based
[9] = biological target: T2, Delta-type opioid receptor; experiment: Displacement of [3H]naltrindole from DOR (unknown origin) upto 1 uM by radioligand binding assay relative to control
[10] = biological target: T1, Kappa-type opioid receptor; experiment: Displacement of [3H]diprenorphine from human KOR expressed in HEK293 cells assessed as inhibition constant incubated for 60 mins by liquid scintillation method; format: cell-based
[11] = biological target: T1, Kappa-type opioid receptor; experiment: Displacement of [3H]diprenorphine from human KOR expressed in HEK293 cells assessed as maximum inhibition at 10 uM incubated for 60 mins by liquid scintillation method relative to control; format: cell-based; settings: filed as inverse agonist
[12] = biological target: Mu-type opioid receptor (Homo sapiens) (UniProt P35372); experiment: Displacement of [3H]naltrindole from MOR (unknown origin) upto 1 uM by radioligand binding assay relative to control
[13] = biological target: T2, Delta-type opioid receptor; experiment: Inverse agonist activity at human DOR assessed as cAMP inhibition pretreated for 5 mins followed by forskolin treatment measured after 15 mins by Glo-Sensor cAMP cell based assay; format: functional; settings: time 20.0 min
[14] = biological target: T1, Kappa-type opioid receptor; experiment: Inverse agonist activity at human KOR assessed as cAMP inhibition pretreated for 5 mins followed by forskolin treatment measured after 15 mins by Glo-Sensor cAMP cell based assay; format: functional; settings: time 20.0 min
[15] = biological target: Mu-type opioid receptor (Homo sapiens) (UniProt P35372); experiment: Inverse agonist activity at human MOR assessed as cAMP inhibition pretreated for 5 mins followed by forskolin treatment measured after 15 mins by Glo-Sensor cAMP cell based assay; format: functional; settings: time 20.0 min

Chain of Mu-type opioid receptor (Homo sapiens) (P35372 whole entry): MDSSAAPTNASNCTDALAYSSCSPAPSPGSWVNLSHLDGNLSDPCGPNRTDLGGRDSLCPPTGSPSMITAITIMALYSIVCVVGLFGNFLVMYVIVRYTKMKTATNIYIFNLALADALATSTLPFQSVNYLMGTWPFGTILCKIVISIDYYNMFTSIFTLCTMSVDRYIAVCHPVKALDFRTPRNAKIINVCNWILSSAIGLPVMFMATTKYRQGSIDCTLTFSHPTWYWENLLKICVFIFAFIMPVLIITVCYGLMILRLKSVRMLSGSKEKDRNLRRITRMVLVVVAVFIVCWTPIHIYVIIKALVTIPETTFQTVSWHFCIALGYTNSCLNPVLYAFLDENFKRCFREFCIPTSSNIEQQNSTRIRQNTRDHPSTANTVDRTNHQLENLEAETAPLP
T2 sequence (P41143 whole entry): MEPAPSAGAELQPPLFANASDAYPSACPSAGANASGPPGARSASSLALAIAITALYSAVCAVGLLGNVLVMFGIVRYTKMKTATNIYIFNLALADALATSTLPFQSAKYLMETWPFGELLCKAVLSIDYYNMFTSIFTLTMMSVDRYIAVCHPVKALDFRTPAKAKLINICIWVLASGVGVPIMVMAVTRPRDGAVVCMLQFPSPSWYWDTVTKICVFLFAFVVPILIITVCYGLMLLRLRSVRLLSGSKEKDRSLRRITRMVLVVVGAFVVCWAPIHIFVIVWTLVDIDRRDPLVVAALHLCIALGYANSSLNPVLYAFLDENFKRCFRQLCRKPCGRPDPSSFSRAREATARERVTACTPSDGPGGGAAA
T1 sequence (P41145 whole entry): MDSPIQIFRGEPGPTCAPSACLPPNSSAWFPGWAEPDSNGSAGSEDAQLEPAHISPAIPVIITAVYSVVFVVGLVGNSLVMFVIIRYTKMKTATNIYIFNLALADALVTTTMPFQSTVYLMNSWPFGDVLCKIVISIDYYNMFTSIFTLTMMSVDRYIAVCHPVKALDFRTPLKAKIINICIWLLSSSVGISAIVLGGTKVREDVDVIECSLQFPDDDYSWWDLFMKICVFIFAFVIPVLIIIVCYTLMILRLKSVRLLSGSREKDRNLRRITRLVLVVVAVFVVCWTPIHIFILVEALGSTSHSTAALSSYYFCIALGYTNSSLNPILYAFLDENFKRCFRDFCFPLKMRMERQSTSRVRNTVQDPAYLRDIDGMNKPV

Structure (SMILES) | Emax [1] [%] | EC50 [2] [nM] | Activity [3] | also measured
O=C(Cc1ccc(Cl)c(Cl)c1)N1CCCC[C@H]1CN1CCCC1 | -100 | 10.5 | – | –
COc1cc2c(-c3ccccc3Cl)nc3c(c(CNCc4cccc(Oc5ccccc5)c4)nn3CC3CCN(C(=O)OC(C)(C)C)CC3)c2cc1OC | -99.4 | 674 | inactive | –
COc1cccc(Cn2nc(CNCc3ccc(OC)c(OC)c3)c3c4cc(OC)c(OC)cc4c(-c4ccccc4Cl)nc32)c1 | -103 | 643 | inactive | –
COc1cccc(Cn2nc(CNCc3cccc4ccccc34)c3c4cc(OC)c(OC)cc4c(-c4ccccc4Cl)nc32)c1 | -96.7 | 430 | inactive | –
COc1cccc(Cn2nc(CNCc3cccc(Oc4ccccc4)c3)c3c4cc(OC)c(OC)cc4c(-c4ccccc4Cl)nc32)c1 | -100 | 9.1 | inactive | EC50 [4]: 49.5 nM; Ratio EC50 [5]: 5
COc1cccc(Cn2nc(CNCCc3ccc4ccccc4c3)c3c4cc(OC)c(OC)cc4c(-c4ccccc4Cl)nc32)c1 | -97.2 | 69.9 | inactive | EC50 [4]: 691 nM; Ratio EC50 [5]: 10
COc1cccc(Cn2nc(CNc3ccc4ccccc4c3)c3c4cc(OC)c(OC)cc4c(-c4ccccc4Cl)nc32)c1 | – | – | inactive | Activity [1]: inactive; Activity [6]: inactive
COc1cccc(CNCc2nn(Cc3cccc(OC)c3)c3ncc4cc(OC)c(OC)cc4c23)c1 | – | – | inactive | Activity [1]: inactive; Activity [6]: inactive
COc1cccc(Cn2nc(CNCc3cc4ccccc4[nH]3)c3c4cc(OC)c(OC)cc4c(-c4ccccc4Cl)nc32)c1 | -98.3 | 339 | inactive | –
COc1cccc(CNCc2n[nH]c3nc(-c4ccccc4Cl)c4cc(OC)c(OC)cc4c23)c1 | – | – | inactive | Activity [1]: inactive; Activity [6]: inactive
COc1cccc(Cn2nc(CNCc3ccc(Oc4ccccc4)cc3)c3c4cc(OC)c(OC)cc4c(-c4ccccc4Cl)nc32)c1 | -91.8 | 338 | inactive | –
CC(=O)[C@H]1CC[C@H]2[C@@H]3CCC4=CC(=O)CC[C@]4(C)[C@H]3CC[C@]12C [PROGESTERONE] | – | – | – | Papp at 4 h, 50 µM [7]: 37.8 ×10⁻⁶ cm/s
COc1cccc(Cn2nc(CNc3cccc(OC)c3)c3c4cc(OC)c(OC)cc4c(-c4ccccc4Cl)nc32)c1 | – | – | inactive | Activity [1]: inactive; Activity [6]: inactive
COc1ccc(CNCc2nn(Cc3cccc(OC)c3)c3nc(-c4ccccc4Cl)c4cc(OC)c(OC)cc4c23)cc1 | -98.2 | 103 | inactive | –
COc1cccc(Cn2nc(CNCc3ccccc3Oc3ccccc3)c3c4cc(OC)c(OC)cc4c(-c4ccccc4Cl)nc32)c1 | -104 | 54.5 | inactive | –
COc1cccc(Cn2nc(CNCc3cccc(OCc4ccccc4)c3)c3c4cc(OC)c(OC)cc4c(-c4ccccc4Cl)nc32)c1 | -103 | 9.33 | inactive | IC50 [8]: 250 nM; EC50 [4]: 207 nM; inhibition [9]: 10%; Ratio EC50 [5]: 22; Ki [10]: 100 nM; Imax [11]: 72%; inhibition [12]: 20%
COc1cc2c(-c3ccccc3Cl)nc3c(c(CNCc4cccc(Oc5ccccc5)c4)nn3Cc3cccc(Cl)c3)c2cc1OC | -101 | 105 | inactive | –
CNC(=C[N+](=O)[O-])NCCSCc1ccc(CN(C)C)o1.Cl [RANITIDINE HYDROCHLORIDE] | – | – | – | Papp at 4 h, 50 µM [7]: 0.12 ×10⁻⁶ cm/s
COc1cccc(Cn2nc(CNCCc3cccc(Oc4ccccc4)c3)c3c4cc(OC)c(OC)cc4c(-c4ccccc4Cl)nc32)c1 | -81.9 | 227 | inactive | –
COc1cccc(CCNCc2nn(Cc3cccc(OC)c3)c3nc(-c4ccccc4Cl)c4cc(OC)c(OC)cc4c23)c1 | -72.8 | 1060 | inactive | –
COc1cccc(CNCc2nn(Cc3cccc(OC)c3)c3nc(-c4ccccc4Cl)c4cc(OC)c(OC)cc4c23)c1 | – | 127 | inactive | EC50 [4]: 483 nM; Activity [13]: inactive; Activity [14]: inactive; Activity [15]: inactive
COc1cccc(Cn2nc(CNCc3ccc4ccccc4c3)c3c4cc(OC)c(OC)cc4c(-c4ccccc4Cl)nc32)c1 | -97.6 | 94.3 | inactive | –
COc1cc2c(-c3ccccc3Cl)nc3c(c(CNCc4cccc(Oc5ccccc5)c4)nn3CC3CCNCC3)c2cc1OC | -95.1 | 2670 | inactive | –

Reference: ChEMBL document CHEMBL5380841, “Discovery and Binding Mechanism of Pyrazoloisoquinoline-Based Novel β-Arrestin Inverse Agonists of the Kappa-Opioid Receptor” (J Med Chem, 2023)
